# From US20060105013A1, “Osteopontin-coated surfaces and methods of use” (priority 2000, published 2006)
# Legend:
# CD44 (human) = CD44 (human) (UniProt P16070); test: cell-based or functional assay
# αvβ3 integrin (human) = αvβ3 integrin (human) (UniProt P06756); test: cell-based or functional assay
# αβ1 integrin (human) = αβ1 integrin (human) (UniProt P05556); test: cell-based or functional assay
# canine model [1] = test: Osseointegration of coated TPS dental implants in canine model (bone to implant contact, bone density); type: in vivo, dog; conditions: coating 200 μg/ml
# Description: Canine models allow the use of implant designs and sizes commonly used in clinical applications.
# Mandibular premolars and first molars were extracted bilaterally in a total of twelve dogs. After a healing period of three months, 6 implants TPS (ITI 4.1×8 mm) were placed in each mandibular quadrant. Test coatings of rOPN and mOC-1016 and non-coated TPS control wre used. A randomized distrubution of tests and controls were incorporated.
# Large hounds were used in this Example. For all surgical procedures (extractions, implant placement, suture removal), after sedation with acepromazine (0.1 mg/kgS.C.), the animals were anesthetized using pentobarbitol (20 mg/kg I.V.). Antibiotics (bicillin 200,000 u I.M.) and ibuprofen for pain control (200 mg/dog/day P.O.) were given for extraction and implant placement surgeries. For sacrifice, an overdose of pentobarbitol (50 mg/kg I.V. after sedation with acepromazine 0.1 mg/kg S.C.) was administered.
# The implant and it's surrounding tissue were dissected in block, fixed in 4% formaldehyde and imbedded in PMMA. The osseointegration of the implant was measured as percent of directly apposed bone versus total implant area by contour analysis using an image analysis system. The extent of new mineralized bone (in percent) in the area between the major and minor diameter of the implant was also determined.
# canine model [2] = test: Safety assessment (serum chemistry, hematology, antibody) after coated implant treatment in dogs; type: in vivo, dog; conditions: dogs with coated implants; vs baseline
# Description: The issue of safety was also addressed by assessing the serum chemistry, hematology and antibody results following treatment. […] Therefore, rOPN and OC-1016 are safe based upon these evaluations.
# HOS cells = test: Attachment of HOS cells to plastic, glass or chromocobalt surfaces coated with OPN; type: cell-based, human; conditions: 1 hour
# Method: 500 cells were plated on coated plastic, glass or chromocobalt surfaces and incubated at 37° C. in a humidified atmosphere (95% air 5% CO2). Surfaces were coated with either human recombinant phosphorylated OPN (rhOPN) or unphosphorylated OPN. Fibronectin coated surfaces were used as a control. After 1 hour, unattached cells were removed and the surfaces were washed with PBS. The total number of attached cells was determined for the total cpm released for the surfaces after the cells were lysed with 10% TCA and solubilized in 5 ml scintillation fluid. All measurements were done in triplicates.
# [3] = tested on: human osteoprogenitor cells; test: Peptide binding: attachment and spreading of human osteoprogenitor cells on coated plates; type: cell-based
# Method: Example 11 analyzes the binding and cell spread activity of various peptides. The activities were measured in 24-well plates that were coated overnight at 4° C. with 10 μg/ml of the indicated ligand or peptide and then blocked for one hour at room temperature with 10 mg/ml BSA (Bovine Serum Albumin) in PBS (Phosphate Buffered Saline). To preserve the integrity of the adhesion receptors osteoprogenitor cells were harvested from sub-confluent cultures by non-enzymatic cell dissociation solution (Sigma, St. Louis, Mo.). Cells were washed twice with PBS and re-suspended at a concentration of 1×10^5 cells/ml of sterile Ca^2+- and Mg^2+-free PBS, supplemented with 0.1% BSA and 1 mM sodium pyruvate. 5×10^4 cells were incubated in each well and, after one hour at 37° C., the wells were washed three times with 0.5 ml PBS to remove non-adherent cells, fixed in 1% glutaraldehyde in 0.1 M cacodylate buffer (pH 7.4) at room temperature for one hour then stained with toluidine blue and hematoxylin. The total number of attached or spread cells in each well were counted microscopically using a Nikon Eclipse microscope equipped with a Sony digital camera. Total number of attached or spread cells were quantified using an Optima 5.2 image analysis system. Each experiment was done in triplicate and is reported as mean+/−standard error. To minimize variability inherent to cell attachment studies cells were scored as attached only when a defined nucleus observed accompanied by a transition from round to cuboidal cell morphology. Round cells that are loosely attached with no defined nucleus were scored as non-attached. These cells can be removed with repeated washes. The viability of the cells was measured before and after the termination of the experiments and only data from experiments with greater than 95% cell viability were used. […] Cell spreading was determined by membrane contour analysis and was scored according to increase in cell volume/surface area. Because of this change in cell volume/surface area, cell spreading is a measure of a change in cellular development. In some experiments, cell spreading was also assessed by the formation of stress fibers. The formation of stress fibers and/or changes in cell volume/surface area are each characteristics of cells undergoing differentiation. Each experiment was performed in quadruplicate wells and repeated three times.
# 5000 total human osteoprogenitor cells were plated on either uncoated plates or coated and incubated at 37° C. in a humidified atmosphere (95% air, 5% CO2). After 30 minutes, unattached cells were removed and the plates were washed with PBS. The total number of attached cells was determined as described in the materials and methods. In some experiments (labeled with an “#” in Table 8), antibodies ([…]) against various integrins were incubated with the cells for 15 minutes prior to plating.
# [4] = cells pre-incubated with Anti-CD44
# [5] = cells pre-incubated with Anti-αvβ3
# [6] = cells pre-incubated with Anti-αβ1
# Sequence of UniProt P05556 (P05556 21-798): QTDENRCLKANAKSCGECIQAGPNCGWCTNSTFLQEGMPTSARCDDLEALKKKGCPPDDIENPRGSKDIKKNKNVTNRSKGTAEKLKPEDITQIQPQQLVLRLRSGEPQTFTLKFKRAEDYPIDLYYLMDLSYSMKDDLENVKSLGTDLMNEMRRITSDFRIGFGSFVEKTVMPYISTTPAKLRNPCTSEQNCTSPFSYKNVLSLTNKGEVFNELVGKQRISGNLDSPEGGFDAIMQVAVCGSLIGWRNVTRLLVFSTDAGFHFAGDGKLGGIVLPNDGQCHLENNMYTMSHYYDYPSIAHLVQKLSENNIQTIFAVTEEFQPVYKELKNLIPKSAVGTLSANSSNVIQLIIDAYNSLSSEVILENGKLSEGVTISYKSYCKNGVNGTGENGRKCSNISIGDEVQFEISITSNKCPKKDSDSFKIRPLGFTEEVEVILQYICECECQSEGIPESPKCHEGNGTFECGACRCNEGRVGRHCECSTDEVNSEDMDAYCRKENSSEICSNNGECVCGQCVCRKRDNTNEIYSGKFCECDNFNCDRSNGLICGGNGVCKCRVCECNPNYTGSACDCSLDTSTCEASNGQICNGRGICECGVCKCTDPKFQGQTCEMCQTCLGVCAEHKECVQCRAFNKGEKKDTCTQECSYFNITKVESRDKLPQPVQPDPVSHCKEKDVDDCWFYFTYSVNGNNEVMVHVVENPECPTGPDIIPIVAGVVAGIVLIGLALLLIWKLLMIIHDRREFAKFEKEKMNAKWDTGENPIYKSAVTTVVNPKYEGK
# Sequence of UniProt P16070 (P16070 21-742): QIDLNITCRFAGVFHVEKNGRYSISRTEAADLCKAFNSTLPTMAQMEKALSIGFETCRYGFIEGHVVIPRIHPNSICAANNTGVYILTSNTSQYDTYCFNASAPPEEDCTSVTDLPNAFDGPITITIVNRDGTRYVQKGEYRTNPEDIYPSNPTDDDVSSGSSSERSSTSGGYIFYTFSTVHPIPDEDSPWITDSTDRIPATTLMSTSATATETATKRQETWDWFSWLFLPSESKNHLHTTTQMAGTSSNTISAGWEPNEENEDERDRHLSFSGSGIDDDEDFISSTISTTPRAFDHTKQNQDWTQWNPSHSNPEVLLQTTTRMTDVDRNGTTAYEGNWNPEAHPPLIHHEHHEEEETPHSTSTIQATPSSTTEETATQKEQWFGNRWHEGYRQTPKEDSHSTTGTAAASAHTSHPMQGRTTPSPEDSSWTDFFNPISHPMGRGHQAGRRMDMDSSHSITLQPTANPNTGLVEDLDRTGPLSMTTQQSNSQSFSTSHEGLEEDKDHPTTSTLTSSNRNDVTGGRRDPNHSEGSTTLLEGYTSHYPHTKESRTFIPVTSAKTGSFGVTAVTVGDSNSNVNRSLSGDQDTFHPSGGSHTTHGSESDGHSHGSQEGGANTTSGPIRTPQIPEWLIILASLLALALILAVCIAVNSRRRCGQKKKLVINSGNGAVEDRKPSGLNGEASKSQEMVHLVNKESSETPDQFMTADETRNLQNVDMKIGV
# Sequence of UniProt P06756 (P06756 31-1048, chain 1 of 2): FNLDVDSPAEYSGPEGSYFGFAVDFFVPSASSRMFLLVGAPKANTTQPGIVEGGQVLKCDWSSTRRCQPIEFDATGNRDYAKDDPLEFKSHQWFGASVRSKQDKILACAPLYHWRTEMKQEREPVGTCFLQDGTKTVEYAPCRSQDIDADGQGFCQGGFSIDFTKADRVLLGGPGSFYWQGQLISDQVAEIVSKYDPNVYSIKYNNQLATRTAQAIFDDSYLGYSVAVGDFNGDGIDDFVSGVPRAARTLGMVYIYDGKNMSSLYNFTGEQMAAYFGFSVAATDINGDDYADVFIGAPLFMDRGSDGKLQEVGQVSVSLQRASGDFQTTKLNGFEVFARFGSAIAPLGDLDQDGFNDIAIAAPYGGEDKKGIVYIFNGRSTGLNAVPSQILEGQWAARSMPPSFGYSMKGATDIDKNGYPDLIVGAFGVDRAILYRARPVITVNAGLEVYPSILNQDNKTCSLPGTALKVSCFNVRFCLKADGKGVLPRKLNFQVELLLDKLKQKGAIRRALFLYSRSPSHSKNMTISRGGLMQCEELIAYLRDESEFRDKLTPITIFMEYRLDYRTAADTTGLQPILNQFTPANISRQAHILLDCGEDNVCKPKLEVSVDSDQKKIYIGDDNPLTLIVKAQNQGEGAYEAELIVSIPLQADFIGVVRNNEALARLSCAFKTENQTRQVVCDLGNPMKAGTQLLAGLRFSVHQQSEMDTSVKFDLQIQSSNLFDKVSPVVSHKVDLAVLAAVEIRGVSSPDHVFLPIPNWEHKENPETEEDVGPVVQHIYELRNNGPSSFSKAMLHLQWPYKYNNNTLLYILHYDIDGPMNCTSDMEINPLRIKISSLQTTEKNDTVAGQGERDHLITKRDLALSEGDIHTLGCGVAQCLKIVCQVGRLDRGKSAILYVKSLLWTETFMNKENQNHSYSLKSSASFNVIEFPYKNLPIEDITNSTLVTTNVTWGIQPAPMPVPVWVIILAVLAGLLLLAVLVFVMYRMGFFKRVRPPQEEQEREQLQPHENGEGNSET
# Sequence of UniProt P06756 (P05106 27-788, chain 2 of 2, further chain): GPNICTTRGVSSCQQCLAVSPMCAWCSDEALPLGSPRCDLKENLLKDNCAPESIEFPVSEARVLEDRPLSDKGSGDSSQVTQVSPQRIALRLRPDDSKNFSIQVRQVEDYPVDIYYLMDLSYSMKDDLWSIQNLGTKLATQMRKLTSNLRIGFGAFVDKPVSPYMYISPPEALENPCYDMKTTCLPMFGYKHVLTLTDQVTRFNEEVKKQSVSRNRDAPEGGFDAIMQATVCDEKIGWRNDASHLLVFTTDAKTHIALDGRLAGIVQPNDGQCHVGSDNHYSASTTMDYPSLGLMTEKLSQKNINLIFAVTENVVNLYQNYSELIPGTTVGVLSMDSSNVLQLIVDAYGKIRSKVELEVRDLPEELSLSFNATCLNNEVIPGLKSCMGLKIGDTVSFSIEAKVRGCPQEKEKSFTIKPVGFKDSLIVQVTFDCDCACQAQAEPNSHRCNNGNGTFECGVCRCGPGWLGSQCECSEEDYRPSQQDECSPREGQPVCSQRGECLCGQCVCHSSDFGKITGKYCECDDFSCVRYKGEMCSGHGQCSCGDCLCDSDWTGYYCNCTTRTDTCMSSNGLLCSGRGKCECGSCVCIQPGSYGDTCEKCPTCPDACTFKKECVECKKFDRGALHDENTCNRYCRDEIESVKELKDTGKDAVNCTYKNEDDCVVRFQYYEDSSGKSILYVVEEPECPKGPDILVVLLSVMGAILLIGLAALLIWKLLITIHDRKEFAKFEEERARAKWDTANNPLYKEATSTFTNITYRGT
Substance,Mean Percent Bone Density (canine model [1]; 4 weeks) [%],Mean Percent Bone to Implant Contact (canine model [1]; 4 weeks) [%],Mean Percent Bone to Implant Contact (canine model [1]; 12 weeks) [%],% total attached (HOS cells; Plastic surface) [%],% total attached (HOS cells; chromocobalt (CrCo) surface) [%],% total attached (HOS cells; glass surface) [%],"% Spread ([3]; no antibody, coated plates) [%]","% total attached cells ([3]; no antibody, coated plates) [%]",other results
Osteopontin (from UniProt P10451 17-314) (ligand),–,–,–,–,–,–,–,–,% Spread (# Anti-CD44) (CD44 (human)): 46.4%; % total attached cells (# Anti-CD44) (CD44 (human)): 66%; % Spread (# Anti-αvβ3) (αvβ3 integrin (human)): 24.8%; % total attached cells (# Anti-αvβ3) (αvβ3 integrin (human)): 69.2%; % Spread (# Anti-αβ1) (αβ1 integrin (human)): 56.6%; % total attached cells (# Anti-αβ1) (αβ1 integrin (human)): 74.8%
rOPN: Recombinant Osteopontin coated on TPS dental implants; printed as OPN in Tables 4-7,70.9,65.6,62.5,–,–,–,–,–,"serum chemistry, hematology and antibody results following treatment (canine model [2]): no clinically significant differences from baseline"
Fibronectin [reference compound],–,–,–,91.6,54.8,89.6,–,–,–
Osteopontin: osteopontin used to coat plates in Table 8; form not specified,–,–,–,–,–,–,78.4,78.4,"% Spread [3, 4]: 46.4%; % total attached cells [3, 4]: 66%; % Spread [3, 5]: 24.8%; % total attached cells [3, 5]: 69.2%; % Spread [3, 6]: 56.6%; % total attached cells [3, 6]: 74.8%"
DTFTPIVPTVDVPNGRFDSLAYGLKSKSKKFQ [SEQ ID NO: 13],–,–,–,–,–,–,100.0,91.1,–
OPN: Table 2: unphosphorylated OPN used as surface coating,70.5,65.6,62.5,43.6,4,37.2,–,–,Mean Percent Bone Density (canine model [1]; 12 weeks): 56.9%
